One assay has as its target NS3 (Hepatitis C virus, UniProt A3EZJ3). As to the kind of experiment: Binding affinity at HCV NS3 protease. The arrangement: species or system Hepatitis C virus subtype 1b.
Assay [1] is described as follows: Selectivity for human neutrophil elastase (HNE) over HCV NS3 protease.
The subject of the next assay is Huh-5-2. As to the kind of experiment: Cytotoxicity against hepatoma cell line containing HCV replicon measured as change in GAPDH RNA level. Type of assay: functional, Homo sapiens. On the technique in general: A replicon is a self-replicating genome or part of one, used to study replication in cells.
The next assay relates to Hepatocyte. Kind of assay: Inhibition of HCV replication in hepatocytes measured by cellular replicon assay. In kind it is functional. The note with it: Hepatitis C virus.

Each structure is given as a SMILES string. Bounds are passed on as bounds.

Sequence of NS3 (A3EZJ3 whole entry): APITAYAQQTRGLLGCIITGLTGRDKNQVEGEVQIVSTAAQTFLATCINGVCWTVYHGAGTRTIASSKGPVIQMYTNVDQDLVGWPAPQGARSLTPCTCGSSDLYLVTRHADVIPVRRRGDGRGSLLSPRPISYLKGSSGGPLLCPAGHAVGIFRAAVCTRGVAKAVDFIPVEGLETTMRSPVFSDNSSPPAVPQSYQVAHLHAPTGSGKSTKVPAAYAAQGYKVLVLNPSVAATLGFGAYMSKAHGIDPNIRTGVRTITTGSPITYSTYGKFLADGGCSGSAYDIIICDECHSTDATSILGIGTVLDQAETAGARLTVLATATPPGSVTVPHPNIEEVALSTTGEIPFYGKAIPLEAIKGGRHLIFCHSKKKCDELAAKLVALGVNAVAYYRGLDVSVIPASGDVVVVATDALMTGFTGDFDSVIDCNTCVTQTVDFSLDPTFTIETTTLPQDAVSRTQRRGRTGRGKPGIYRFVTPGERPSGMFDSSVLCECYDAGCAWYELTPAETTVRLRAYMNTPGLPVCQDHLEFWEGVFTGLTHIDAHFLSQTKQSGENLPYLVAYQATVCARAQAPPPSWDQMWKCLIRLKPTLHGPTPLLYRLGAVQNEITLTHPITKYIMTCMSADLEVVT

In general, Ki refers to the dissociation constant of the complex between target and ligand, obtained from inhibition or displacement. Read a high Ki as lower affinity. On NS3, `CC(C)(C)OC(=O)N[C@H](C(=O)N1C[C@H]2[C@@H]([C@H]1C(=O)NC(CC1CCCCC1)C(=O)C(N)=O)C2(C)C)C1CCCCC1` (some centres not stated) came in with a Ki of more than 12000 nM.
`C=C(C)CC(NC(=O)[C@@H]1[C@@H]2[C@H](CN1C(=O)[C@@H](NC(=O)OC(C)(C)C)C1CCCCC1)C2(C)C)C(=O)C(N)=O` (some centres not stated): the affinity on NS3, expressed as Ki, was 300 nM. Moreover, the Selectivity ratio in assay [1] came to 2.
By EC90 is commonly meant the point of the concentration-response curve where the effect stands at 90%. A high value points to a need for much substance. In the case of `CC(C)(C)OC(=O)N[C@H](C(=O)N1C[C@H]2[C@@H]([C@H]1C(=O)NC(CC1CCC1)C(=O)C(N)=O)C2(C)C)C(C)(C)C` (some centres not stated), the Activity in the assay on Huh-5-2 is more than 5 µM. This molecule also gave a Ki at NS3 of 76 nM. This molecule registered an EC90 with Hepatocyte of 800 nM. Besides, the Selectivity ratio in assay [1] was found to be 684.
Turning to `CC(C)(C)NC(=O)N[C@H](C(=O)N1C[C@H]2[C@@H]([C@H]1C(=O)NC(CC1CC1)C(=O)C(N)=O)C2(C)C)C1CCCCC1` (some centres not stated), on NS3, the affinity, expressed as Ki, was 50 nM. The Selectivity ratio in assay [1] was 38.
At NS3, `CCCC(NC(=O)[C@@H]1[C@@H]2[C@H](CN1C(=O)[C@@H](NC(=O)OC(C)(C)C)C1CCCCC1)C2(C)C)C(=O)C(=O)NCC(=O)N[C@@H](C)C1CCCCC1` (some centres not stated) gave a Ki of 92 nM.
On to `CC(C)OC(=O)N[C@H](C(=O)N1C[C@H]2[C@@H]([C@H]1C(=O)NC(CC1CC1)C(=O)C(N)=O)C2(C)C)C(C)(C)C` (some centres not stated), for which the Ki on NS3 is 150 nM. In assay [1], the Selectivity ratio came to 100.
As to `C[C@@H](NC(=O)N[C@H](C(=O)N1C[C@H]2[C@@H]([C@H]1C(=O)NC(CC1CCC1)C(=O)C(N)=O)C2(C)C)C(C)(C)C)C(C)(C)C` (some centres not stated), in the assay with Huh-5-2, the Activity was more than 5 µM. This molecule displayed a Ki at NS3 of 35 nM. This molecule registered an EC90 with Hepatocyte of 400 nM. In assay [1], the Selectivity ratio came to 380.
At NS3, `CC(C)[C@H](NC(=O)OC(C)(C)C)C(=O)N1C[C@H]2[C@@H]([C@H]1C(=O)NC(CC1CC1)C(=O)C(N)=O)C2(C)C` (some centres not stated) showed a Ki of 210 nM. Also, the Selectivity ratio in assay [1] was found to be 19.
`CCCC(NC(=O)[C@@H]1[C@@H]2[C@H](CN1C(=O)[C@@H](NC(=O)OC(C)(C)C)C1CCCCC1)C2(C)C)C(=O)C(=O)NCC(=O)NCC1CC1` (some centres not stated): the affinity on NS3 corresponds to a Ki of 130 nM.
Take `C=CCCC(NC(=O)[C@@H]1[C@@H]2[C@H](CN1C(=O)[C@@H](NC(=O)OC(C)(C)C)C1CCCCC1)C2(C)C)C(=O)C(N)=O` (some centres not stated): the affinity on NS3, expressed as Ki, was 150 nM. Further, in assay [1], the Selectivity ratio was determined as 2.
For `CCCC(NC(=O)[C@@H]1[C@@H]2[C@H](CN1C(=O)[C@@H](NC(=O)OC(C)(C)C)C1CCCCC1)C2(C)C)C(=O)C(=O)NCC(N)=O` (some centres not stated), the Ki on NS3 turned out to be 790 nM.
As to `CC(C)(C)OC(=O)N[C@H](C(=O)N1C[C@H]2[C@@H]([C@H]1C(=O)NC(CC1CCCC1)C(=O)C(N)=O)C2(C)C)C1CCCCC1` (some centres not stated), the Ki on NS3 worked out at 150 nM. For the same molecule, in assay [1], the Selectivity ratio was determined as 370.
On NS3, `CCCC(NC(=O)[C@@H]1[C@@H]2[C@H](CN1C(=O)[C@@H](NC(=O)OC(C)(C)C)C1CCCCC1)C2(C)C)C(=O)C(=O)NCC(=O)OC(C)(C)c1ccccc1` (some centres not stated) had a Ki of 50 nM.
On NS3, `CC(C)CC(NC(=O)[C@@H]1[C@@H]2[C@H](CN1C(=O)[C@@H](NC(=O)OC(C)(C)C)C1CCCCC1)C2(C)C)C(=O)C(N)=O` (some centres not stated) came in with a Ki of 400 nM. In assay [1], the Selectivity ratio is 9.
`CC(C)COC(=O)N[C@H](C(=O)N1C[C@H]2[C@@H]([C@H]1C(=O)NC(CC1CC1)C(=O)C(N)=O)C2(C)C)C(C)(C)C` (some centres not stated) yielded a Ki at NS3 of 70 nM. In addition, in assay [1], the Selectivity ratio turned out to be 160.
At NS3, `CC(C)(C)OC(=O)N[C@H](C(=O)N1C[C@H]2[C@@H](C1C(=O)NC(CC1CCO1)C(=O)C(N)=O)C2(C)C)C1CCCCC1` (some centres not stated) showed a Ki of 90 nM. Also, the Selectivity ratio in assay [1] turned out to be 140.
In the assay with Huh-5-2, `CC1(NC(=O)N[C@H](C(=O)N2C[C@H]3[C@@H]([C@H]2C(=O)NC(CC2CC2)C(=O)C(N)=O)C3(C)C)C(C)(C)C)CC1` (some centres not stated) came in with an Activity of more than 5 µM. Also, at NS3, the Ki is 80 nM. This molecule also returned an EC90 with Hepatocyte of 900 nM. Further, the Selectivity ratio in assay [1] was 100.
In the assay on Huh-5-2, `CC(C)(C)OC(=O)N[C@H](C(=O)N1C[C@H]2[C@@H]([C@H]1C(=O)NC(CC1COC1)C(=O)C(N)=O)C2(C)C)C1CCCCC1` (some centres not stated) registered an Activity of more than 5 µM. Further, the Ki at NS3 worked out at 400 nM. In the assay on Hepatocyte, this molecule showed an EC90 of more than 1000 nM.
`CCC(NC(=O)[C@@H]1[C@@H]2[C@H](CN1C(=O)[C@@H](NC(=O)OC(C)(C)C)C1CCCCC1)C2(C)C)C(=O)C(N)=O` (some centres not stated) returned a Ki on NS3 of 740 nM.
On NS3, `CC(C)(C)OC(=O)N[C@H](C(=O)N1C[C@H]2[C@@H]([C@H]1C(=O)NC(CC1CC1)C(=O)C(N)=O)C2(C)C)C1(C)CC1` (some centres not stated) gave a Ki of 300 nM.
At NS3, `CC(C)(C)NC(=O)N[C@H](C(=O)N1C[C@H]2[C@@H]([C@H]1C(=O)NC(CC1CCC1)C(=O)C(N)=O)C2(C)C)C1CCCCC1` (some centres not stated) yielded a Ki of 50 nM. For the same molecule, the Selectivity ratio in assay [1] was 90.
Regarding `CC(C)(C)OC(=O)N[C@H](C(=O)N1C[C@H]2[C@@H]([C@H]1C(=O)NC(CC1CC1)C(=O)C(N)=O)C2(C)C)C(C)(C)C` (some centres not stated), the Activity with Huh-5-2 was more than 5 µM. This molecule returned an EC90 in the assay with Hepatocyte of 600 nM.
With `CC(C)(C)OC(=O)N[C@H](C(=O)N1C[C@H]2[C@@H]([C@H]1C(=O)NC(CC1CCC1)C(=O)C(N)=O)C2(C)C)C(C)(C)O` (some centres not stated), the affinity at NS3, expressed as Ki, was 220 nM. In addition, in assay [1], the Selectivity ratio amounted to 55.
`CC(C)NC(=O)N[C@H](C(=O)N1C[C@H]2[C@@H]([C@H]1C(=O)NC(CC1CC1)C(=O)C(N)=O)C2(C)C)C(C)(C)C` (some centres not stated): the Ki on NS3 was determined as 140 nM. The Selectivity ratio in assay [1] was 160.
Take `CC(C)(C)OC(=O)N[C@H](C(=O)N1C[C@H]2[C@@H]([C@H]1C(=O)NC1(C(=O)C(N)=O)CC1)C2(C)C)C1CCCCC1`: at NS3, the Ki is more than 14000 nM.
For `CCCCNC(=O)C(=O)C(CCC)NC(=O)[C@@H]1[C@@H]2[C@H](CN1C(=O)[C@@H](NC(=O)OC(C)(C)C)C1CCCCC1)C2(C)C` (some centres not stated), at NS3, the affinity corresponds to a Ki of 1900 nM.
Still for that read-out and setting: the figure for `CC(C)(C)[C@H](NC(=O)OC1CC1)C(=O)N1C[C@H]2[C@@H]([C@H]1C(=O)NC(CC1CC1)C(=O)C(N)=O)C2(C)C` (some centres not stated) is 300 nM; for `CCCC(NC(=O)[C@@H]1[C@@H]2[C@H](CN1C(=O)[C@@H](NC(=O)OC(C)(C)C)C1CCCCC1)C2(C)C)C(=O)C(=O)NCC(=O)N[C@H](C)c1ccccc1` (some centres not stated) it is 55 nM.
Regarding `CC(C)(C)OC(=O)N[C@H](C(=O)N1C[C@H]2[C@@H]([C@H]1C(=O)NC(CC1CC1)C(=O)C(N)=O)C2(C)C)C1CCCC1` (some centres not stated), affinity at NS3 was put at a Ki of 100 nM. In addition, the Selectivity ratio in assay [1] came to 11.
`CC(C)(C)OC(=O)N[C@H](C(=O)N1C[C@H]2[C@@H]([C@H]1C(=O)NC(CC1CCC1)C(=O)C(N)=O)C2(C)C)C1(C)CC1` (some centres not stated): the affinity on NS3 corresponds to a Ki of 700 nM.
`CN(C(=O)N[C@H](C(=O)N1C[C@H]2[C@@H]([C@H]1C(=O)NC(CC1CCC1)C(=O)C(N)=O)C2(C)C)C(C)(C)C)C(C)(C)C` (some centres not stated): on NS3, the Ki was found to be 100 nM. Also, the Selectivity ratio in assay [1] was found to be 270.
`CCCC(NC(=O)[C@@H]1[C@@H]2[C@H](CN1C(=O)[C@@H](NC(=O)OC(C)(C)C)C1CCCCC1)C2(C)C)C(=O)C(=O)N(C)C` (some centres not stated) returned a Ki at NS3 of more than 13000 nM.
Consider `CC(C)(C)OC(=O)N[C@H](C(=O)N1C[C@H]2[C@@H]([C@H]1C(=O)NC(CC1CCC1)C(=O)C(N)=O)C2(C)C)C1Cc2ccccc2C1` (some centres not stated), for which the Activity in the assay with Huh-5-2 was more than 5 µM. In addition, the Ki on NS3 turned out to be 270 nM. In the assay on Hepatocyte, this molecule displayed an EC90 of 2000 nM.
Molecule `CCCC(NC(=O)[C@@H]1[C@@H]2[C@H](CN1C(=O)[C@@H](NC(=O)OC(C)(C)C)C1CCCCC1)C2(C)C)C(=O)C(=O)O` (some centres not stated) yielded a Ki at NS3 of 110 nM.

The values above are taken from ChEMBL document CHEMBL1137396, “Discovery of (1R,5S)-N-[3-amino-1-(cyclobutylmethyl)-2,3-dioxopropyl]- 3-[2(S)-[[[(1,1-dimethylethyl)amino]carbonyl]amino]-3,3-dimethyl-1-oxobutyl]- 6,6-dimethyl-3-azabicyclo[3.1.0]hexan-2(S)-carboxamide (SCH 503034), a selective, potent, orally bioavailable hepatitis C virus NS3 protease …” (J Med Chem, 2006).
